# Data taken from patent US11420962B2, “Indene derivatives useful in treating pain and inflammation” (TARO PHARMACEUTICALS INC., priority 2018, dated 2022).
# Key:
# [1] = test system: rats (male, Wistar); test: Complete Freund's Adjuvant (CFA) model of inflammatory pain in rats; format: in vivo; details: 30 mg/kg dose
# Experimental: Representative compounds of the invention (i.e., test compounds) were tested in this model of inflammatory pain. The rats (male, Wistar) were acclimatized to the instruments (plantar test surface and dynamic plantar aesthesiometer) on two consecutive days prior to the initiation of the study. On Day 0, basal paw withdrawal latency and paw withdrawal threshold were taken and animals were randomized to different groups. Complete Freund's Adjuvant (CFA) at 1 mg/mL (0.1 mL) was injected into the plantar surface of right hind paw. Test compounds (3 or 30 mg/kg) were administered PO, twice (Day 0 and Day 1) or once, on Day 1 (24 h after CFA). Thermal hyperalgesia and mechanical allodynia were assessed at 0 (baseline), 1, 3 and 6 h after administration of the test compound on Day 1. Diclofenac was used as a reference compound, given once on Day 1.
# [2] = test system: Rat DRG; test: Rat dorsal root ganglion excitability response (EFS, Ca2+ transients); format: cell-based; details: Rattus norvegicus; Table 3; electrical field stimulation, Ca5 indicator; read-out: Scoring (EC50, Rat DRG excitability)
# Outline: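 Adult rat DRG cells cultured for 2 days were loaded with the Ca5 dye 1 h before electrical field stimulation under four protocols. Compounds were tested at six concentrations (typically top 30 μM, 1:3 steps, duplicate), added either 24 h before or directly before EFS. The read-out was the per-well peak/baseline fluorescence ratio change, with imaging used to check for toxicity.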
# [3] = test system: T cells; test: T cell proliferation (anti-CD3/anti-CD28 dynabeads, CCK-8); format: cell-based, mice; details: Table 4, mouse T cells, 72 hours after dynabeads, read-out: Scoring (IC50, cell proliferation)
# Experimental: Spleens were obtained from six male, CD-1 outbred mice, approximately 8 weeks old. Cells were harvested under sterile conditions by forcing each spleen though a cell filter (pore size 100 μm diameter). A homogenous cell suspension was obtained by washing the cells in fresh medium and passing cells through a smaller cell filter (pore size 70 μm).
# Untouched T cells were isolated using the Pan T cell isolation kit (Miltenyi Biotech). Briefly, cells were counted and incubated with the required volume of antibody cocktail for 5 minutes at 4° C. before addition of microbeads and incubation for 10 minutes at 4° C. Labeled cells were retained in a magnetic column while unlabeled cells (T cells) passed through the column and were retained for use in the assay.
# Cell viability was assessed by Trypan Blue exclusion and found to be >99% prior to transfer to plates. Isolated T cells were seeded out in 96 well plates at a density of 50,000 cells per well and allowed to incubate for 60 minutes in a humidified cell culture (37° C., 5% CO2) incubator prior to compound treatment. The media used for this assay (TexMACS, Miltenyi Biotech) was previously optimized for proliferation of T cells in serum free conditions.
# Representative compounds of the invention (i.e., test compounds) were prepared as 30 mM stocks in 100% DMSO. Test compounds were initially diluted in media to yield 3 mM stocks before an additional 1:10 dilution in media was performed to yield working stocks of 300 μM (1% DMSO). Subsequent dilutions were performed in media (supplemented with 1% DMSO). When added to the assay plates (1:10 dilution), these yielded final concentrations in the assay plates of in 0.1% DMSO. The reference compound, Cyclosporin A, was prepared in an identical manner as above.
# Unstimulated and Stimulated Control wells received an identical volume of TexMACS media/1% DMSO at this time, resulting in a final concentration of 0.1% DMSO across the plate. Mouse anti-CD3/anti-CD28 dynabeads were prepared (following the manufacturers' instructions) in TexMACS media and added to appropriate wells to achieve a final concentration of 1 bead per cell. Unstimulated Control wells then received an identical volume of TexMACS. Plates were centrifuged 72 hours after addition of dynabeads, (300×g for 3 minutes) to pellet the cells and 60% of the supernatant was removed to a fresh plate for analysis by ELISA. After removal of 60% of the supernatant for subsequent ELISA, cell proliferation was assessed using the CCK-8 assay.
# Average response by the standard compound, cyclosporin A, was 1 uM.
# [4] = test system: Mice (male, C57Bl/6); test: Formalin pain assay in mice; format: in vivo; details: Table 7; formalin 2.5%, left plantar
# Experimental: Mice (male, C57BL/6) were placed singly in a Perspex chamber for approximately 30 min on three successive days to acclimate and thereby reduce stress-induced behaviors. On the fourth day, the experimental animals received a 25 μl injection of 2.5% formalin beneath the left plantar skin using a 29-gauge syringe. […] The total time spent on flinches/licking/biting of the hind paw was recorded by visual observation for every 5 min period/interval for total observation duration of 60 min in two phases, the early phase (0-5 min) and the late phase (15-40 min). Observers were blinded to the treatment group allocation.
# For test compounds, the % protection from 0-60 min was used to assess activity. Scoring for the test compounds was as follows: “A” represents a % protection of 81 to 100%, “B” represents a % protection of 61 to 80%, “C” represents a % protection of 31 to 60% and “D” represents a % protection of 0 to 30%.
# [5] = Metabolism by human liver microsomes; format: in vitro ADME; details: Table 8; 10 µM, in the presence of NADPH, 1 mg/mL protein
# Outline: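 Compound at 10 μM preincubated 10 min at 37 °C with human liver microsomes (1 mg/mL protein), 100 mM Tris HCl pH 7.5; started with 1 mM NADPH, run 60 min. Percent remaining at 60 min versus 0-time by LC-MS/MS analyte/internal-standard ratio, scored in bands.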
# [6] = test system: female Sprague-Dawley rats; test: Cyclophosphamide-induced cystitis in rats (visceral pain); format: in vivo; details: 300 mg/kg dose
# Experimental: Representative compounds of the invention (i.e., test compounds) were administered to female Sprague-Dawley rats, for four days by oral gavage in 0.9% saline. Two hours after the fourth dose, the rats were challenged by intraperitoneal administration of cyclophosphamide (150 mg/kg). Referred mechanical sensitivity was measured four hours later by applying a series of eight von Frey filaments to the lower abdomen, three times each for 1-2 seconds with a 5 second interval between applications. Responses were scored (zero-no response; one-response, two-response and change of position, and three-response, change of position and licking the site or vocalization), totaled and the percent of maximal possible nociceptive score calculated. Ibuprofen was used as a reference standard.
# [7] = test system: male Sprague-Dawley rats; test: Rat chronic prostatitis/chronic pelvic pain (carrageenan); format: in vivo; details: 300 mg/kg
# Experimental: Representative compounds of the invention (i.e., test compounds) were administered for 11 days by oral gavage in 0.9% saline (3, 10 or 30 mg/kg QD; 5 mL/kg dose volume) to male Sprague-Dawley rats. Carrageenan-mediated chronic prostatitis/chronic pelvic pain (CP/CPPS) established in rats (10 per group) by administration of an intraprostatic injection of carrageenan (˜12.5 μL/lobe of a 30 mg/mL solution) into both ventral prostate lobes, on Day 0. Referred mechanical sensitivity was measured on Days 0, 1, 3 and 7, 2 hours after test compound, or vehicle (saline) administration, by applying 6 von Frey filaments with increasing forces of 0.16-2 g to the scrotal skin area, 3 times each for 1-2 seconds, with a 5-second interval between applications. Responses were scored (zero-no response; one-reaction of the animal, two-jump, and three-licking the site) and expressed as the nociceptive threshold for each day of assessment. Ibuprofen was used as a reference standard.
# According to the above assay, Compound Ia-1 restored nociceptive threshold to 65% of baseline on Day 3 at the 30 mg/kg dose as compared to the reference standard, ibuprofen (300 mg/kg), which restored the threshold to 120% of the baseline.
# [8] = test system: rats (male, Wistar); test: Rat monosodium iodoacetate-induced osteoarthritis; format: in vivo
# Experimental: Representative compounds of the invention (i.e., test compounds) were administered to rats (male, Wistar) PO, QD, at 3 or 30 mg/kg, starting on Day 0 through to Day 21 of the study. Osteoarthritis was modeled by intra-articular injection of 3 mg of monosodium iodoacetate (MIA) in the right knee. Knee swelling, paw withdrawal threshold (mechanical allodynia) and the difference in weight bearing were measured on Day 0 (pre-induction) and on Days 3, 7, 14 and 21 post-MIA injection. Tramadol was used as a reference standard.
# [9] = test system: Rats (male, Sprague-Dawley); test: Spinal nerve ligation (neuropathic pain); format: in vivo; details: 10 mg/kg
# From the text: Rats (male, Sprague-Dawley) were anaesthetized and placed in a prone position and the left paraspinal muscles were separated from the spinous processes at the L6-S2 levels. The L6 transverse process was carefully removed to visually identify the L4-L6 spinal nerves. The left L5 spinal nerves were isolated and tightly ligated with 6-0 silk thread. The skin was sutured to close the open tissue and animals were allowed to recover for 1 week before pain assessment. Basal readings for mechanical allodynia and thermal hyperalgesia were performed using a dynamic plantar aesthesiometer and plantar test surface, respectively, before surgery. On Day 7 following surgery, mechanical allodynia and thermal hyperalgesia were assessed and animals were randomized into treatment groups based on these baseline readings. […] Thermal hyperalgesia and mechanical allodynia were tested at 0, 60 and 120 minutes post administration of compounds on Days 7 and 14.
# [10] = test system: Mice (male, C57Bl/6); test: Bleomycin lung fibrosis; format: in vivo
# From the text: Mice (male, C57BL/6) were randomized into treatment groups and fibrosis was induced by intratracheal administration of bleomycin. Treatment with representative compounds of the invention (i.e., test compounds) or reference standard (pirfenidone) was initiated on Day −1 and administered daily unto Day 7 or Day 21. For groups undergoing bronchoalveolar lavage (BAL), the trachea was cannulated and infused with ice cold Hank's Balanced Salt Solution (HBSS, pH 7.2). The collected lavage fluid was analyzed for cell numbers (total and differential counts) and levels of soluble TGFβ and collagen. For other groups, the lungs were either snap-frozen or formalin-fixed for further analyses.
# [11] = test system: Rats (male, Sprague-Dawley); test: TNBS colitis assay in rats; format: in vivo; details: 10 mg/kg dose
# Experimental: TNBS Colitis Assay of Representative Compounds in Rats Rats (male, Sprague-Dawley) were anaesthetized and a solution of TNBS (48 mg/kg) in ethanol, was instilled intra-rectally to induce colitis, 1 h after oral dosing of representative compounds of the invention (i.e., test compounds). Test compounds were dosed PO, QD for 7 days, using prednisolone as a reference standard. […] On Day 7, rats were euthanized and the colon was evaluated for length, weight, wall thickness, ulcer number and length and for the presence of adhesions and strictures. A colonic score was calculated based on the severity of the colonic parameters.
# [12] = test system: Rats (male, Sprague-Dawley); test: Rat carrageenan-induced hyperalgesia and paw edema; format: in vivo; details: 10 mg/kg, given 1 h prior to carrageenan challenge
# Experimental: Representative compounds of the invention (i.e., test compounds) were administered PO, QD for 3 days prior to carrageenan injection, once at 1 h prior to carrageen, or at 5 min or 1 h post-challenge to rats (male, Sprague-Dawley). Rats received either an intraplantar injection of saline (sham) or carrageen (0.1 mL of a 2% solution [w/v]) in the right hind paw. Mechanical hyperalgesia (using an analgesymeter) and paw volume (using a digital plethysmometer) were measured at baseline (0 hr), 2, 4 and 6 h post carrageenan injection for all the animals. Celecoxib, given 1 h prior to carrageen challenge, was used as a reference standard.
structure (smiles),measurement,setting,value
"O=C(O)Cc1ccccc1Nc1c(Cl)cccc1Cl [diclofenac, reference compound]",increase in the paw withdrawal threshold,[1],62%
"CC(C)CCC[C@@H](C)[C@H]1CC[C@H]2[C@H](CN)[C@@H]([C@@]3(C)Cc4cn[nH]c4C[C@@H]3CO)CC[C@]12C [Ia-6, ((5R,6S)-5-((1R,3aS,4S,5S,7aR)-4-(aminomethyl)-7a-methyl-1-((R)-6-methylheptan-2-yl)octahydro-1H-inden-5-yl)-5-methyl-4,5,6,7-tetrahydro-1H-indazol-6-yl)methanol]",EC50,[2],6 to 15 µM
same,IC50,[3],< 2 µM
same,Scoring (% protection from 0-60 min),[4],C (a % protection of 31 to 60%)
same,"Scoring (% of drug remaining after 60 minutes, PDR60)",[5],A (a PDR^60 of 81 to 100%)
"CC(C)Cc1ccc(C(C)C(=O)O)cc1 (stereo not drawn) [ibuprofen, reference compound]","nociceptive threshold, % of baseline levels",[6],123%
same,"nociceptive threshold restored, % of the baseline",[7],120%
"COc1cccc(C2(O)CCCCC2CN(C)C)c1 (stereo not drawn) [tramadol, reference compound]",reduction difference in weight bearing as compared to the vehicle,[8]; 10 mg/kg,79%
same,reduction in knee diameter as compared to the vehicle,"[8]; Day 3, 30 mg/kg",11%
same,overall increase in paw withdrawal threshold as compared to the vehicle,[9],77%
"C=C1CC[C@H]2[C@H](CNCc3ccc4c(c3)OC(F)(F)O4)[C@@H]([C@@]3(C)Cc4cn[nH]c4C[C@@H]3CO)CC[C@]12C [Ia-3, ((5R,6S)-5-((3aS,4R,5S,7aS)-4-((((2,2-difluorobenzo[d][1,3]dioxol-5-yl)methyl)amino)methyl)-7a-methyl-1-methyleneoctahydro-1H-inden-5-yl)-5-methyl-4,5,6,7-tetrahydro-1H-indazol-6-yl)methanol]",EC50,[2],2 to 6 µM
same,IC50,[3],< 2 µM
same,"Scoring (% of drug remaining after 60 minutes, PDR60)",[5],D (a PDR^60 of 0 to 30%)
"Cc1ccc(=O)n(-c2ccccc2)c1 [pirfenidone, reference compound]",reduction in BAL macrophages,"[10]; Day 7, 100 mg/kg dose",30%
same,reduction in fibrosis,"[10]; Day 14, 100 mg/kg dose",46%
"C[C@]12C=CC(=O)C=C1CC[C@@H]1[C@@H]2[C@@H](O)C[C@@]2(C)[C@H]1CC[C@]2(O)C(=O)CO [prednisolone, reference compound]",reduction of the colonic score,[11],68%
"C=C1CC[C@H]2[C@H](CN)[C@@H]([C@@]3(C)Cc4c(C)n[nH]c4C[C@@H]3CO)CC[C@]12C [Ia-32, ((5R,6S)-5-((3aS,4R,5S,7aS)-4-(aminomethyl)-7a-methyl-1-methyleneoctahydro-1H-inden-5-yl)-3,5-dimethyl-4,5,6,7-tetrahydro-1H-indazol-6-yl)methanol]",EC50,[2],> 15 µM
same,IC50,[3],6 to 15 µM
same,Scoring (% protection from 0-60 min),[4],C (a % protection of 31 to 60%)
same,"Scoring (% of drug remaining after 60 minutes, PDR60)",[5],B (a PDR^60 of 61 to 80%)
"Cc1ccc(-c2cc(C(F)(F)F)nn2-c2ccc(S(N)(=O)=O)cc2)cc1 [celecoxib, reference compound]",increase in the paw withdrawal threshold,[12],59%
